Data set [1] in a line: Phase 1 clinical trial of topical LUT014 gel: safety and tolerability. It is filed as in vivo, human. The text has this: This was an open-label, dose escalation study of LUT014 gel topically administered for four weeks. A 2-week screening period (day −14 to day −1) was followed by a 4-week treatment period (day 0 to day 27). Patients applied the study drug once daily to their face, neck, chest, and upper back. The post-treatment safety follow-up period ran from day 28 to day 55. Additionally, two long term safety follow up visits were done 3 and 6 months after completion of treatment, including a dermatological exam to detect any potential BRAF inhibitor skin toxicities within the treatment area.
Three dose levels of LUT014 gel were tested: 0.3 mg/g, 1.0 mg/g and 2.5 mg/g. The dose of LUT014 was escalated in sequential dose cohorts of 3 to 6 patients, in a conventional 3+3 escalating dose design. Escalation to the next dose level was permitted if no DLT was reported by the three patients in the cohort within 4 weeks of receiving the first dose of LUT014. If one out of three patients developed a dose limiting toxicity (DLT), additional three patients were planned to be treated with study drug at the same dose level. At any given dose level, if more than one out of the three or six patients experienced a DLT within 4 weeks of receiving the first dose of LUT014, the dose level was determined to have exceeded the MTD, and the MTD was set to be the next lower dose.
A DLT was defined as any treatment-emergent grade 2 or higher clinically significant adverse event, with the exception of a transient grade 2 adverse event (i.e., one that returns to grade 1 or baseline within 7 days) or grade 2 adverse event that was manageable with standard of care (i.e., one that returns to grade 1 or baseline within 14 days), that occurred within 4 weeks of the first dose of study drug for which there was a reasonable possibility that LUT014 had caused the event. Upon completion of the 4-week treatment period of the third patient in each dosing cohort, a Safety Review Committee (SRC) meeting was set to review the safety data and to provide recommendation/decision on dose escalation/de-escalation, or expansion of dosing cohort.
Safety and tolerability were assessed primarily based on the adverse events from day 0 to day 55. In addition to the adverse events assessment, the safety measurements included physical examination, vital signs and body weight, 12-lead ECG, ECOG performance status, safety labs including complete blood count, comprehensive metabolic panel and urinalysis. At 3 and 6 months […] a dermatologist performed a skin assessment of the areas of the skin where LUT014 gel was applied to screen for potential cutaneous toxicities known to be associated with approved BRAF inhibitors, including erythema nodosum-type rash, photosensitivity, squamous papillomas or warts, keratoacanthomas, cutaneous squamous cell carcinoma, dry skin, and folliculitis or cysts (Welsh, et al., Therapeutic advances in medical oncology 7, 122-136, 2015).

Data set [2] deals with MIA-PaCa-2 cells. Kind of data set: MIA-PaCa-2 cellular proliferation (ATP-lite, 72 hours). It is filed as cell-based, human. How it is done: MIA-PaCa-2 cells (ATCC catalog number CRM-CRL-1420, Manassas, VA) were cultured at 37° C. in T75 flasks in growth medium DMEM (ATCC) supplemented with 10% FBS and 2.5% horse serum. After 4 days, when the flasks reached 50% confluence, cells were harvested with trypsin and seeded in 96 well plates at a concentration of 5000 cells/well, in a total volume of 0.1 ml/well starvation medium and incubated 24 hours at 37° C., 5% CO2. The next morning, medium was replaced with 180 μl growth medium (containing 10% FBS and 2.5% horse serum) and 20 μl of each concentration of LUT014, DMSO or PBS. Each concentration of each compound was added to triplicate wells. The plates were incubated for 72 hours at 37° C., 5% CO2. Cellular proliferation was measured using the ATP-lite proliferation assay (Perkin Elmer, Waltham, MA) following the manufacturer's instructions, with the luminescence measured using a CLARIOstar reader (BMG Labtech, Ortenberg, Germany), and analyzed with the ATPlite TOP program (Perkin Elmer).

A short description of data set [3]: Phase 1 clinical trial: plasma pharmacokinetics (LC-MS/MS). It counts as in vivo, human. The conditions noted are these: patients, topical gel; for systemic absorption / exposure after topical administration: plasma. How it is done:
Blood samples for PK analysis were taken from the initial three patients enrolled to each dosing cohort (total 9 patients). PK samples were collected pre-dose on day 0 and day 7 and at 1, 2, 4, 8 and 24 hours post-dose. A qualified liquid chromatography tandem mass spectroscopy LC-MS/MS analytical assay with an LLOQ of 10 pg/ml was used to determine concentrations of LUT014 in plasma. Plasma concentrations below the limit of quantitation (<10 pg/mL) were treated as zero for the calculations of mean (SD).
Tabular summaries of the secondary safety assessments included descriptive statistics (i.e., mean, standard deviation, median, and range for continuous data and frequency for categorical data) for each visit assessed, as well as for the calculated changes from baseline. For the pharmacokinetics analyses, plasma LUT014 concentration-time profiles were analyzed by non-compartmental methods and PK parameters were calculated by standard equations, when plasma levels are achieved. PK analyses produced using Phoenix® WinNonLin (Certara, Princeton, NJ). The efficacy assessments NCI CTCAE skin and subcutaneous tissue disorders grading scale, MASCC Study Group EGFR Inhibitor-dermatologic adverse event grading scale, FACT-EGFRI-13 questionnaire, were summarized by treatment group using descriptive statistics as appropriate (i.e., mean, standard deviation, median, and range for continuous data and frequency for categorical data). All analyses were performed using SAS® Software (version 9.2, SAS Institute, Cary, NC).

Data set [4] relates to phosphorylated ERK1/2 (MAPK pathway) in HKGS-activated HEKa cells. Kind of data set: Reversal of EGFR inhibitor-mediated pERK inhibition in HKGS-activated HEKa cells, Western blot. It counts as cell-based, human. The conditions noted are these: HKGS plus EGFR inhibitor plus LUT014 0.3 μM, two hours. On the technique in general: Immunoblotting shows a protein as a band on a membrane.
Description: Primary HEKa, isolated from adult skin of a single donor and cryopreserved at the end of primary culture (Gibco catalog number C0055C, Thermo Fisher Scientific, Waltham, MA), were cultured in T25 flasks at 37° C., 5% CO2 in growth medium (Epilife™ CF Kit, Gibco) supplemented with 60 μM calcium (Gibco) and HKGS (Gibco). After at least three passages, cells were harvested with trypsin when flask reached 70-80% confluence, and seeded in 10 cm culture dishes (250,000 cells/dish) in 9 ml of growth medium overnight. To analyze the effect of HKGS or a BRAF inhibitor on pERK, cells were starved for 2.5 hours in 5 mL of starvation medium without HKGS, and then individual plates were incubated for two hours with DMSO 0.1%, HKGS, vemurafenib 0.3 μM (0.146 μg/mL), or LUT014 0.3 μM (0.158 μg/mL). […] Cells were harvested with 1 ml cold PBS containing EDTA-free, phosphatase inhibitor cocktail (MilliporeSigma, Burlington, MA) using a cell scraper. […] The signals of phosphorylated ERK1/2 and total ERK2 were quantified using ImageJ software and the phosphorylated ERK1/2/total ERK2 ratio was calculated. For the quantification, equal sized rectangles were drawn around the bands of the phosphorylated ERK1/2 and the total ERK2 and the pixels in each rectangle were measured.

The mark [5] stands for this setting: topical gel 0.3, 1.0, 2.5 mg/g once daily, 4 weeks, 10 patients.

Entries after “also recorded” stand apart in the source; their conditions may differ.

On to `Cc1ccc2c(Nc3cccc(OC(F)(F)F)c3)nccc2c1Nc1ncccc1-c1ncnc2[nH]cnc12` [LUT014], for which, in data set [1] (all cohorts), the “toxicities associated with oral systemic BRAF inhibitors (photosensitivity, maculo-papular rash, hyperkeratosis)” value is listed as “no local or systemic toxicities”. The “patients with an adverse event considered related to the study drug” value in data set [1] (all cohorts, 10 patients, pruritus, dry skin, stinging sensation) is given as “Seven”. Further, in data set [1] (human, in vivo, 4 weeks), the “Treatment-related adverse events: Dry skin, All Grades” value was 1; the “Treatment-related adverse events: Dry skin, Grade 3 or 4” value came to 0; the “Treatment-related adverse events: Local Pain, All Grades” value was determined as 1; the “Treatment-related adverse events: Local Pain, Grade 3 or 4” value turned out to be 0. Further, in data set [1] (human, in vivo, 4 weeks), the “Treatment-related adverse events: Pruritus, All Grades” value is reported as 6; the “Treatment-related adverse events: Pruritus, Grade 3 or 4” value is recorded as 0; the “severity grade of related adverse events” value is reported as 1-2; the “total adverse events of any attribution” value stood at 38. In addition, in data set [1] (setting [5]), the dose-limiting toxicities result is “no dose-limiting toxicities; also recorded: no dose limiting toxicity” and the tolerability result is “well tolerated”. Moreover, in data set [2], the “concentration of peak proliferation” value came to 0.041 µM and the “proliferation at the highest concentrations” value is listed as “growth arrest”. In data set [3], the “plasma concentrations lower than effective systemic concentrations of other BRAF inhibitors” value is 3 to 4 orders of magnitude. In data set [3] (day 0 and day 7), the plasma concentrations entry is given as “in the pg/mL range”; the “systemic absorption / exposure after topical administration” value is “negligible absorption and minimal systemic exposure”. In addition, in data set [3] (day 0 and day 7, listed as compound of formula IV), the “systemic absorption / exposure after topical administration” value is “negligible to minimal systemic absorption”. Also, the “effect on pERK inhibition by EGFR inhibitors (erlotinib, cetuximab)” value in data set [4] is listed as “abrogated the inhibitory effect of both EGFR inhibitors”.
